Results from the kinase profiling compilation of Christmann-Franck et al. (2016).

Columns and labels:
Assay in all cases: radiometric filter-binding kinase assay, Kinase HotSpot
Settings in all cases: compound 0.5 µM; ATP 10 µM
EPHA2 (human) = EPHA2 (human) (UniProt P29317)
FGR (human) = FGR (human) (UniProt P09769)
SYK (human) = SYK (human) (UniProt P43405)
PRKG2 (human) = PRKG2 (human) (UniProt Q13237)
PRKCI (human) = PRKCI (human) (UniProt P41743)
PAK2 (human) = PAK2 (human) (UniProt Q13177)
TSSK2 (human) = TSSK2 (human) (UniProt Q96PF2)
Sequence of TSSK2 (human) (Q96PF2 whole entry, looked up): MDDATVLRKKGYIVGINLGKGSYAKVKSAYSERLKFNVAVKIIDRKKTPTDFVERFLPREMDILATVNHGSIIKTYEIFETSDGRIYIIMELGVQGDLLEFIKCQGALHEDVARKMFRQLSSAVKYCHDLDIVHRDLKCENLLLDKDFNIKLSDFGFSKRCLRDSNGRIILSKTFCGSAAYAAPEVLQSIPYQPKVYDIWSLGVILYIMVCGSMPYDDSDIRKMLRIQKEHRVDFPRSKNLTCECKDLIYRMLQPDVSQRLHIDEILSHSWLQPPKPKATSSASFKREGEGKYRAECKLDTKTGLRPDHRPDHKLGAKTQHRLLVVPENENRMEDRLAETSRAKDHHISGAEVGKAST

MKNK2 (human) = MKNK2 (human) (UniProt Q9HBH9)
MET (human) = MET (human) (UniProt P08581)
SRPK1 (human) = SRPK1 (human) (UniProt Q96SB4)
IKBKB (human) = IKBKB (human) (UniProt O14920)
Sequence of IKBKB (human) (O14920 whole entry, looked up): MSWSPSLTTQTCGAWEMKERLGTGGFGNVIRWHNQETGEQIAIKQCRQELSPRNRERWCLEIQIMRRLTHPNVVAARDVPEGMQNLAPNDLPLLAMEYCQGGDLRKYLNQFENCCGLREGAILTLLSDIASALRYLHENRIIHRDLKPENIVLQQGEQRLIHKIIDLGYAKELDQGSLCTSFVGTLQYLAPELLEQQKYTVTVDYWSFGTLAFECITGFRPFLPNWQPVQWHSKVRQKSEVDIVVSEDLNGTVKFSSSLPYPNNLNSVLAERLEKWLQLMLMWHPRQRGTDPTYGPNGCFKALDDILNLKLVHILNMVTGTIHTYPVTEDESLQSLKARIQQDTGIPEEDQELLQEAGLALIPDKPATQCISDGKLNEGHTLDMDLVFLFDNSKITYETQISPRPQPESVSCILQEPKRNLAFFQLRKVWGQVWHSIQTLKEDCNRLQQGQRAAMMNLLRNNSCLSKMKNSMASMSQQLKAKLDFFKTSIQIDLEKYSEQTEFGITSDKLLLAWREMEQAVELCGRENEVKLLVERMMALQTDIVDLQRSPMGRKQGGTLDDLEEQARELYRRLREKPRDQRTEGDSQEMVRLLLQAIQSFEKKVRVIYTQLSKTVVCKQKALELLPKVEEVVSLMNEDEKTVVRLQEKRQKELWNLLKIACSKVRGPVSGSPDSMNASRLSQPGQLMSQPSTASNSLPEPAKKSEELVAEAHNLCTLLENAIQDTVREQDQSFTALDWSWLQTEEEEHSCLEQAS

CLK3 (human) = CLK3 (human) (UniProt P49761)
Sequence of CLK3 (human) (P49761 whole entry, looked up): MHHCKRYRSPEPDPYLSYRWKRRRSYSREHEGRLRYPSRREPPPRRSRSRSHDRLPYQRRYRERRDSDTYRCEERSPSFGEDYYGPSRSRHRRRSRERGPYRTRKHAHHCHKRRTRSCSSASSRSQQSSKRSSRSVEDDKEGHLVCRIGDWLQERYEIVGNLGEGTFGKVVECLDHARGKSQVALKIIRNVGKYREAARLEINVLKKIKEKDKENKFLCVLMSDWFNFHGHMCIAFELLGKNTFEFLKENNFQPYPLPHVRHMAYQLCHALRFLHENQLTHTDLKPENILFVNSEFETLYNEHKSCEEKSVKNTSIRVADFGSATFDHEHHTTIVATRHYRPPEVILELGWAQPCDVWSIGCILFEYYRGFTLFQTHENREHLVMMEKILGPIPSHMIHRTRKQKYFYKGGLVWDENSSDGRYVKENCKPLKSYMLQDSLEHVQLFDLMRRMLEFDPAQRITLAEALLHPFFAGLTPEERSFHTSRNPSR

ROCK2 (human) = ROCK2 (human) (UniProt O75116)
PAK1 (human) = PAK1 (human) (UniProt Q13153)
VRK1 (human) = VRK1 (human) (UniProt Q99986)
EPHA5 (human) = EPHA5 (human) (UniProt P54756)
Sequence of EPHA5 (human) (P54756 whole entry, looked up): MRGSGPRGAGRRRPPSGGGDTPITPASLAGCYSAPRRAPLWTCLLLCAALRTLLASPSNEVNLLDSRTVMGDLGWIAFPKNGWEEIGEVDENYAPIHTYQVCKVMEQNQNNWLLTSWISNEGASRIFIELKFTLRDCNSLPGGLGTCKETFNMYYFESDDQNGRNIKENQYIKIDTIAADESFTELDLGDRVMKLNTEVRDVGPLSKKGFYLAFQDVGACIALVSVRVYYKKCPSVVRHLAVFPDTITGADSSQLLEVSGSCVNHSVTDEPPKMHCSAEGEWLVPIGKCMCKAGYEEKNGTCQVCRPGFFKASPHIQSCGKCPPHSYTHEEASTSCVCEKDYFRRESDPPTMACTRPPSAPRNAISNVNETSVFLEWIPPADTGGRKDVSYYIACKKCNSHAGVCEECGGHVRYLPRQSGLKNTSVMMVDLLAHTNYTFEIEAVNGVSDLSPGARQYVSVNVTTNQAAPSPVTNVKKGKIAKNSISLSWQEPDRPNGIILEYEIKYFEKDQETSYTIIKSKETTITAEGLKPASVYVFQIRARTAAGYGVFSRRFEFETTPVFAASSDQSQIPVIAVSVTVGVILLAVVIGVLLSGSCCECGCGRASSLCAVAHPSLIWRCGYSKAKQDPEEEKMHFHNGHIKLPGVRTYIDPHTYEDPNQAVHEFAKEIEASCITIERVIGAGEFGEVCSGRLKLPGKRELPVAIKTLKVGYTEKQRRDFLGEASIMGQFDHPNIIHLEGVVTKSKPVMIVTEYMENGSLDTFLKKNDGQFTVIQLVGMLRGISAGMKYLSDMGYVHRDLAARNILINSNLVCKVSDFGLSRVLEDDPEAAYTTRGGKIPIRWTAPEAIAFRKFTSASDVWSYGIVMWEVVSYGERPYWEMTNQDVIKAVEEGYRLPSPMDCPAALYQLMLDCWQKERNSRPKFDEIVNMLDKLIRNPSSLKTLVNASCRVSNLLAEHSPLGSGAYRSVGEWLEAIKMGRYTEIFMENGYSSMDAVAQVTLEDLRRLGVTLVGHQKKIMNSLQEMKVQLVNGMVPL

ADRBK2 (human) = ADRBK2 (human) (UniProt P35626)
RPS6KA4 KD2 (human) = RPS6KA4 KD2 (human) (UniProt O75676)
MAPK9 (human) = MAPK9 (human) (UniProt P45984)
GRK6 (human) = GRK6 (human) (UniProt P43250)
PDGFRB (human) = PDGFRB (human) (UniProt P09619)
WNK3 (human) = WNK3 (human) (UniProt Q9BYP7)
PAK3 (human) = PAK3 (human) (UniProt O75914)
ROCK1 (human) = ROCK1 (human) (UniProt Q13464)
CHUK (human) = CHUK (human) (UniProt O15111)
CDK5 CDK5R1 p25 (human) = CDK5 CDK5R1 p25 (human) (UniProt Q00535+Q15078)
Sequence of CDK5 CDK5R1 p25 (human) (Q00535 whole entry, looked up): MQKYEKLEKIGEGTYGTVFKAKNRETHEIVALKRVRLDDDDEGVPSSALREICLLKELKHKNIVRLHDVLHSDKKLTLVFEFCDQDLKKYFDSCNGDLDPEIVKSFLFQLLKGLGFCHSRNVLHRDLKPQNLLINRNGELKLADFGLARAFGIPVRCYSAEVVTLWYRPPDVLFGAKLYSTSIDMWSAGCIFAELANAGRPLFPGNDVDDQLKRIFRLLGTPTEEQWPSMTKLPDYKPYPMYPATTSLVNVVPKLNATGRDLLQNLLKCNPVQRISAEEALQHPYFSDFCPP
Sequence of CDK5 CDK5R1 p25 (human) (Q15078 whole entry, looked up): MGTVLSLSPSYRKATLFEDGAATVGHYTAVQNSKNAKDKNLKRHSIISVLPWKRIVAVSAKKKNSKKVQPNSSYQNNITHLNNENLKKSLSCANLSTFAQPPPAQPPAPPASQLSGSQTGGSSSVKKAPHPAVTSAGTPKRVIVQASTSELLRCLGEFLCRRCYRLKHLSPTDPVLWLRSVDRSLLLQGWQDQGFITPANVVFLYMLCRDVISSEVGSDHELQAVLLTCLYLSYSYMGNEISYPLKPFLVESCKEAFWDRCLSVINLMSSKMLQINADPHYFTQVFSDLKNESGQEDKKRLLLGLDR

CSNK1G1 (human) = CSNK1G1 (human) (UniProt Q9HCP0)
FER (human) = FER (human) (UniProt P16591)
PAK4 (human) = PAK4 (human) (UniProt O96013)
Sequence of PAK4 (human) (O96013 whole entry, looked up): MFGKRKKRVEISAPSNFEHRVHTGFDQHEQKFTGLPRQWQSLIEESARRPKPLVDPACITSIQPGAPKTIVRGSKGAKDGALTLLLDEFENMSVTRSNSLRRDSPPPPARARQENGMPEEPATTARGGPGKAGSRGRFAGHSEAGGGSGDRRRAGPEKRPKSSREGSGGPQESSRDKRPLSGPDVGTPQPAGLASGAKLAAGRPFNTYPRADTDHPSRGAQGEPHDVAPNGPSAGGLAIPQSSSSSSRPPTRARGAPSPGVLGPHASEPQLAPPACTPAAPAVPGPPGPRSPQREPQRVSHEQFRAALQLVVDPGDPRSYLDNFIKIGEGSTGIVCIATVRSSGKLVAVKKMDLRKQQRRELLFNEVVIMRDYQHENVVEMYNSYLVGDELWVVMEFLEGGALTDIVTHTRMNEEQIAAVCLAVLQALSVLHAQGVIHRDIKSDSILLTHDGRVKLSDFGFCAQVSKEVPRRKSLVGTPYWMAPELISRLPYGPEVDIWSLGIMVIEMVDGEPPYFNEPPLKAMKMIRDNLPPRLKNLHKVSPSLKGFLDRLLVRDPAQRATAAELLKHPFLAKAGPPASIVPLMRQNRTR

INSRR (human) = INSRR (human) (UniProt P14616)
PRKCB2 (human) = PRKCB2 (human) (UniProt P05771)
MAPK8 (human) = MAPK8 (human) (UniProt P45983)
Sequence of MAPK8 (human) (P45983 whole entry, looked up): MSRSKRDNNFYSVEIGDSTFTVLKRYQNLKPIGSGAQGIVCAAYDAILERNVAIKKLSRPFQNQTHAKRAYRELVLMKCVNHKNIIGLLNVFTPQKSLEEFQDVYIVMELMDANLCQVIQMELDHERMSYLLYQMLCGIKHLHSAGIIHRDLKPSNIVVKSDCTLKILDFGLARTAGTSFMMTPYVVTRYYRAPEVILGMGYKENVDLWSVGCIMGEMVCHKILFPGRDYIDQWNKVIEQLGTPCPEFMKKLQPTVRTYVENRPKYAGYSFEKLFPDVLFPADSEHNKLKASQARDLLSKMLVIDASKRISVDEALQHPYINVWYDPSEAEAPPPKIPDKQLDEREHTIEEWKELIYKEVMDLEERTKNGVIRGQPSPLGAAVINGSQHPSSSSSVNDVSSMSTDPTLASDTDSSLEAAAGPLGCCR

CDK9 CCNT1 (human) = CDK9 CCNT1 (human) (UniProt P50750+O60563)
CAMK1 (human) = CAMK1 (human) (UniProt Q14012)
Sequence of CAMK1 (human) (Q14012 whole entry, looked up): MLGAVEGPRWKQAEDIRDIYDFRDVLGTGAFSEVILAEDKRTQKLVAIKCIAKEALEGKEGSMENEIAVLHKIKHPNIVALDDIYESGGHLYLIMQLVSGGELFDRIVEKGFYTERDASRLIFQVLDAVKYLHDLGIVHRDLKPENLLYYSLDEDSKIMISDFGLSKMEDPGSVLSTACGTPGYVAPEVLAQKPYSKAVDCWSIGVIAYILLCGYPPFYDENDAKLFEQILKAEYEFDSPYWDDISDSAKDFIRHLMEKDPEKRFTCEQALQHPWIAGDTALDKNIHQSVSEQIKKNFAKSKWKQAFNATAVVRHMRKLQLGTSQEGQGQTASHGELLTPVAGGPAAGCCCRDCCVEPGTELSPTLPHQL

CDC42BPA (human) = CDC42BPA (human) (UniProt Q5VT25)
AKT3 (human) = AKT3 (human) (UniProt Q9Y243)
PRKX (human) = PRKX (human) (UniProt P51817)
Sequence of PRKX (human) (P51817 whole entry, looked up): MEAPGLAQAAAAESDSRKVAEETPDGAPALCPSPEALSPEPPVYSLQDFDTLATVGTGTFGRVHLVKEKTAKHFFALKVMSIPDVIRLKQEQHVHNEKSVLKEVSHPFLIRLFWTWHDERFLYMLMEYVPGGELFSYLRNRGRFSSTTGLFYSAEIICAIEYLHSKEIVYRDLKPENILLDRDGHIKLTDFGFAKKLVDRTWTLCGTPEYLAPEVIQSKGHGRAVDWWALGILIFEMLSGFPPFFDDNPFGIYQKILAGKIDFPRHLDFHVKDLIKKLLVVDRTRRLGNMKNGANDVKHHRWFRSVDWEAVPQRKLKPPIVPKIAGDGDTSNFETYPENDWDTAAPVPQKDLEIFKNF

MAPKAPK5 (human) = MAPKAPK5 (human) (UniProt Q8IW41)
ALK (human) = ALK (human) (UniProt Q9UM73)
MAP3K3 (human) = MAP3K3 (human) (UniProt Q99759)
RPS6KB2 (human) = RPS6KB2 (human) (UniProt Q9UBS0)
MAPK13 (human) = MAPK13 (human) (UniProt O15264)

## Nc1ncnc2c1cnn2-c1ccccc1
EPHA2 (human)
  residual activity: 96%
FGR (human)
  residual activity: 93.8%
SYK (human)
  residual activity: 96%
PRKG2 (human)
  residual activity: 99.2%
PRKCI (human)
  residual activity: 97.3%
PAK2 (human)
  residual activity: 98.1%
TSSK2 (human)
  residual activity: 106%
MKNK2 (human)
  residual activity: 72.7%
MET (human)
  residual activity: 97.1%
SRPK1 (human)
  residual activity: 98.1%
IKBKB (human)
  residual activity: 97.3%
CLK3 (human)
  residual activity: 96.1%
ROCK2 (human)
  residual activity: 83.2%
PAK1 (human)
  residual activity: 94.2%
VRK1 (human)
  residual activity: 84.4%
EPHA5 (human)
  residual activity: 95.6%
ADRBK2 (human)
  residual activity: 105%
RPS6KA4 KD2 (human)
  residual activity: 106%
MAPK9 (human)
  residual activity: 88.2%
GRK6 (human)
  residual activity: 92.3%
PDGFRB (human)
  residual activity: 94.7%
WNK3 (human)
  residual activity: 97.2%
PAK3 (human)
  residual activity: 98.8%
ROCK1 (human)
  residual activity: 93.8%
CHUK (human)
  residual activity: 92.6%
CDK5 CDK5R1 p25 (human)
  residual activity: 102%
CSNK1G1 (human)
  residual activity: 94.8%
FER (human)
  residual activity: 99%
PAK4 (human)
  residual activity: 86.5%
INSRR (human)
  residual activity: 106%
PRKCB2 (human)
  residual activity: 96.5%
MAPK8 (human)
  residual activity: 87.1%
CDK9 CCNT1 (human)
  residual activity: 109%
CAMK1 (human)
  residual activity: 97.5%
CDC42BPA (human)
  residual activity: 90.2%
AKT3 (human)
  residual activity: 102%
PRKX (human)
  residual activity: 95.3%
MAPKAPK5 (human)
  residual activity: 87.1%
ALK (human)
  residual activity: 90.9%
MAP3K3 (human)
  residual activity: 95.5%
RPS6KB2 (human)
  residual activity: 87.5%

## COc1cc2c(N3CCN(C(=O)Nc4ccc(OC(C)C)cc4)CC3)ncnc2cc1OCCCN1CCCCC1
EPHA2 (human)
  residual activity: 102%
FGR (human)
  residual activity: 94%
SYK (human)
  residual activity: 102%
PRKG2 (human)
  residual activity: 105%
PRKCI (human)
  residual activity: 96.2%
PAK2 (human)
  residual activity: 112%
TSSK2 (human)
  residual activity: 96.6%
MKNK2 (human)
  residual activity: 99%
MET (human)
  residual activity: 92.5%
SRPK1 (human)
  residual activity: 98.2%
IKBKB (human)
  residual activity: 97.3%
MAPK13 (human)
  residual activity: 99.3%
CLK3 (human)
  residual activity: 93.4%
ROCK2 (human)
  residual activity: 90.8%
PAK1 (human)
  residual activity: 107%
VRK1 (human)
  residual activity: 100%
EPHA5 (human)
  residual activity: 104%
ADRBK2 (human)
  residual activity: 97.6%
RPS6KA4 KD2 (human)
  residual activity: 120%
MAPK9 (human)
  residual activity: 103%
GRK6 (human)
  residual activity: 105%
WNK3 (human)
  residual activity: 102%
PAK3 (human)
  residual activity: 105%
ROCK1 (human)
  residual activity: 102%
CHUK (human)
  residual activity: 98.3%
CDK5 CDK5R1 p25 (human)
  residual activity: 104%
CSNK1G1 (human)
  residual activity: 98%
FER (human)
  residual activity: 104%
PAK4 (human)
  residual activity: 103%
INSRR (human)
  residual activity: 98.9%
PRKCB2 (human)
  residual activity: 93.1%
MAPK8 (human)
  residual activity: 105%
CDK9 CCNT1 (human)
  residual activity: 100%
CAMK1 (human)
  residual activity: 101%
CDC42BPA (human)
  residual activity: 106%
AKT3 (human)
  residual activity: 106%
PRKX (human)
  residual activity: 108%
MAPKAPK5 (human)
  residual activity: 91.9%
ALK (human)
  residual activity: 103%
MAP3K3 (human)
  residual activity: 106%
RPS6KB2 (human)
  residual activity: 102%

## O=S(=O)(NCCNC/C=C/c1ccc(Br)cc1)c1cccc2cnccc12
EPHA2 (human)
  residual activity: 101%
FGR (human)
  residual activity: 106%
SYK (human)
  residual activity: 77.7%
PRKG2 (human)
  residual activity: 56.9%
PRKCI (human)
  residual activity: 88.4%
PAK2 (human)
  residual activity: 78.6%
TSSK2 (human)
  residual activity: 104%
MKNK2 (human)
  residual activity: 78.7%
IKBKB (human)
  residual activity: 89.5%
MAPK13 (human)
  residual activity: 101%
CLK3 (human)
  residual activity: 87.6%
ROCK2 (human)
  residual activity: 15.4%
PAK1 (human)
  residual activity: 90.2%
VRK1 (human)
  residual activity: 80.1%
EPHA5 (human)
  residual activity: 96.9%
ADRBK2 (human)
  residual activity: 101%
RPS6KA4 KD2 (human)
  residual activity: 38.8%
MAPK9 (human)
  residual activity: 93.4%
GRK6 (human)
  residual activity: 93.5%
PDGFRB (human)
  residual activity: 112%
WNK3 (human)
  residual activity: 93.1%
PAK3 (human)
  residual activity: 103%
ROCK1 (human)
  residual activity: 37.8%
CHUK (human)
  residual activity: 104%
CDK5 CDK5R1 p25 (human)
  residual activity: 113%
CSNK1G1 (human)
  residual activity: 97.2%
FER (human)
  residual activity: 97.6%
PAK4 (human)
  residual activity: 98.9%
INSRR (human)
  residual activity: 103%
PRKCB2 (human)
  residual activity: 90.2%
MAPK8 (human)
  residual activity: 92.7%
CDK9 CCNT1 (human)
  residual activity: 87.8%
CAMK1 (human)
  residual activity: 107%
CDC42BPA (human)
  residual activity: 97.5%
AKT3 (human)
  residual activity: 69%
PRKX (human)
  residual activity: -2.49%
MAPKAPK5 (human)
  residual activity: 90.2%
ALK (human)
  residual activity: 101%
MAP3K3 (human)
  residual activity: 85.4%
RPS6KB2 (human)
  residual activity: 71.9%

## COc1cc2c(Nc3ccc(Br)cc3F)ncnc2cc1OCC1CCN(C)CC1
EPHA2 (human)
  residual activity: 21.5%
FGR (human)
  residual activity: 30%
SYK (human)
  residual activity: 101%
PRKG2 (human)
  residual activity: 101%
PRKCI (human)
  residual activity: 88.1%
PAK2 (human)
  residual activity: 103%
TSSK2 (human)
  residual activity: 95.9%
MKNK2 (human)
  residual activity: 86.9%
SRPK1 (human)
  residual activity: 97.9%
IKBKB (human)
  residual activity: 87.7%
MAPK13 (human)
  residual activity: 95.5%
CLK3 (human)
  residual activity: 100%
ROCK2 (human)
  residual activity: 90.7%
PAK1 (human)
  residual activity: 108%
VRK1 (human)
  residual activity: 98.9%
EPHA5 (human)
  residual activity: 54.4%
ADRBK2 (human)
  residual activity: 97.4%
RPS6KA4 KD2 (human)
  residual activity: 110%
MAPK9 (human)
  residual activity: 96.4%
GRK6 (human)
  residual activity: 104%
WNK3 (human)
  residual activity: 98%
PAK3 (human)
  residual activity: 103%
ROCK1 (human)
  residual activity: 99.4%
CHUK (human)
  residual activity: 96.6%
CDK5 CDK5R1 p25 (human)
  residual activity: 97.8%
CSNK1G1 (human)
  residual activity: 100%
FER (human)
  residual activity: 95.8%
PAK4 (human)
  residual activity: 90.2%
INSRR (human)
  residual activity: 105%
PRKCB2 (human)
  residual activity: 91.6%
MAPK8 (human)
  residual activity: 93.7%
CAMK1 (human)
  residual activity: 81.6%
CDC42BPA (human)
  residual activity: 83.7%
AKT3 (human)
  residual activity: 100%
PRKX (human)
  residual activity: 105%
MAPKAPK5 (human)
  residual activity: 94.7%
MAP3K3 (human)
  residual activity: 102%
RPS6KB2 (human)
  residual activity: 101%

## N#C/C(=C1/Nc2ccccc2S1)c1ccnc(NCCc2cccnc2)n1
EPHA2 (human)
  residual activity: 103%
FGR (human)
  residual activity: 86.1%
SYK (human)
  residual activity: 92.4%
PRKG2 (human)
  residual activity: 98.1%
PRKCI (human)
  residual activity: 94.4%
PAK2 (human)
  residual activity: 103%
TSSK2 (human)
  residual activity: 102%
MKNK2 (human)
  residual activity: 51%
MET (human)
  residual activity: 105%
SRPK1 (human)
  residual activity: 97%
MAPK13 (human)
  residual activity: 100%
CLK3 (human)
  residual activity: 88.5%
ROCK2 (human)
  residual activity: 83.6%
PAK1 (human)
  residual activity: 96.5%
VRK1 (human)
  residual activity: 94.1%
EPHA5 (human)
  residual activity: 113%
ADRBK2 (human)
  residual activity: 99.1%
RPS6KA4 KD2 (human)
  residual activity: 107%
MAPK9 (human)
  residual activity: 67.5%
GRK6 (human)
  residual activity: 87.6%
PDGFRB (human)
  residual activity: 103%
WNK3 (human)
  residual activity: 81.3%
PAK3 (human)
  residual activity: 102%
ROCK1 (human)
  residual activity: 93.2%
CHUK (human)
  residual activity: 88.6%
CDK5 CDK5R1 p25 (human)
  residual activity: 90%
CSNK1G1 (human)
  residual activity: 88.8%
FER (human)
  residual activity: 91%
PAK4 (human)
  residual activity: 91.3%
INSRR (human)
  residual activity: 92.2%
MAPK8 (human)
  residual activity: 87.6%
CDK9 CCNT1 (human)
  residual activity: 23.3%
CAMK1 (human)
  residual activity: 101%
CDC42BPA (human)
  residual activity: 99.6%
AKT3 (human)
  residual activity: 105%
PRKX (human)
  residual activity: 96.4%
MAPKAPK5 (human)
  residual activity: 98.3%
ALK (human)
  residual activity: 85.2%
MAP3K3 (human)
  residual activity: 94.7%
RPS6KB2 (human)
  residual activity: 96.5%
